In assay [1] the target is T1, villin (Homo sapiens, UniProt P09327).
T1 sequence (P09327 1-827): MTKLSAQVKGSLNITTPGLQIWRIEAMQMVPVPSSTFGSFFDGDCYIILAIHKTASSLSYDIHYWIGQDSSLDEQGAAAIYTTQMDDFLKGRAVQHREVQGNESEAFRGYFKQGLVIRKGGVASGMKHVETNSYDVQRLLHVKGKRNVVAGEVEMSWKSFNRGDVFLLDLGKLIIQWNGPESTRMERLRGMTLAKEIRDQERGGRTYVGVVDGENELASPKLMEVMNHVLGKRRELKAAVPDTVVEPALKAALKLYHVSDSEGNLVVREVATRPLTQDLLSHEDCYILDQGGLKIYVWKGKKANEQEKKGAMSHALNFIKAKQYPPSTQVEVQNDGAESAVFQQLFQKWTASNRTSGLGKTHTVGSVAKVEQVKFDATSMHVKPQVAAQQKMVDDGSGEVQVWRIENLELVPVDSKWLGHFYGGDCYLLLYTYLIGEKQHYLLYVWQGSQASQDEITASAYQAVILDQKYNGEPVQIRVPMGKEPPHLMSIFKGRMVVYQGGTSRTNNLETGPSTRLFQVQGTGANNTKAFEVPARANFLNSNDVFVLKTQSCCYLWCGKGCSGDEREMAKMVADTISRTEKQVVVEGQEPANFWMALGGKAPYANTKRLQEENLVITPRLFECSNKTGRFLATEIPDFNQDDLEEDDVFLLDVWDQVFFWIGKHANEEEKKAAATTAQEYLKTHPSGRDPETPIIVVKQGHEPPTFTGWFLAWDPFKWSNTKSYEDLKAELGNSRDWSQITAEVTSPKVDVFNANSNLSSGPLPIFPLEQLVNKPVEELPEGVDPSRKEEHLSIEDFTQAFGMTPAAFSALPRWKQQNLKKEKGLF
Description: Binding of macroketone to villin in vitro.

The target of another assay is fascin (Homo sapiens, UniProt Q16658). The assay is classed as biochemical. On the set-up: GST (N); made in house; host or cells: Escherichia coli BL21. Conditions: fluorescence microscopy. Here is the method:
Whole cell lysates from 4T1 mouse breast tumor cells were made. After preclearing the cell lysate with immobilized neutravidin biotin binding protein (Pierce, IL, USA) to remove biotin and avidin-binding proteins, the cell lysates were loaded to a column packed with the biotin-labeled macroketone (conjugated to neutravidin beads). A control column packed with free biotin and neutravidin beads was run side-by-side. After washing the column with 10 bed volumes of lysis buffer with 300 mM NaCl, the bound proteins were eluted with 0.1 M Glycine-HCl at pH 2.8 according to the manufacturer's instruction. […] Protein Expression and Purification. Recombinant GST-fascin fusion protein was produced in BL21 Escherichia coli. A 1-liter culture was grown to an A600 reading of 1.0 and then induced by addition of 0.3 mM isopropyl 1-thio-D-galactopyranoside (IPTG) for 12 hours at 25° C. Cells were flash frozen and then lysed by sonication in Tris-buffered saline. The supernatant was then incubated with glutathione-Sepharose for 2 h at 4° C. After extensive washing, GST-fascin was eluted and concentrated with a Centricon Plus-20 (Millipore). To remove the GST tag from the fusion protein, beads were incubated with thrombin overnight at 4° C. The supernatant was collected and concentrated. […] Actin bundling activity was measured by low speed centrifugation assay and fluorescence microscopy. […]

Assay [2] addresses T1, villin. Nature of the assay: Migration of fascin siRNA-treated 4T1 cells rescued with villin. The assay is classed as cell-based. On the set-up: expressed in transfected cells; host or cells: 4T1 mouse mammary tumor cells treated with fascin siRNA. The note with it: villin over-expression in fascin siRNA-treated 4T1 cells. How it is done:
Boyden Chamber Cell Migration Assay. Cells (5×10^4) suspended in starvation medium were added to the upper chamber of an insert (6.5 mm diameter, 8-micrometer pore size, Becton Dickenson), and the insert was placed in a 24-well dish containing starvation medium with or without 10% FBS (Yang et al. 2005, Shan et al. 2006). When used, inhibitors were added to both chambers. Migration assays were carried out for 4-6 hours and cells were fixed with 3.7% formaldehyde. Cells were stained with crystal violet staining solution, and cells on the upper side of the insert were removed with a cotton swab. Three randomly selected fields (10× objectives) on the lower side of the insert were photographed, and the migrated cells were counted. The migration was expressed as either the average number of migrated cells in a field or as percentage of migrated cells in positive control. Percentage was calculated with the formula P=100×(M−Mnc)/Mpc, where P is the percentage of migrated cells, M is the number of migrated cells, Mnc is the number of migrated cells in negative controls, and Mpc is the number of migrated cells in positive controls.

Results on one compound are retold here after patent US20100297109A1, “METHODS FOR INHIBITING FASCIN” (Cornell University, priority 2007, published 2010).

`COC1C=CCCCCC(=O)CCC(C)=CC(C)C1O` (stereo not shown) [macroketone, Migrastatin ketone]: at villin [1], the “binding to villin in vitro” value is “did not bind”. Besides, the “inhibition of formation of F-actin bundles” value on fascin (fascin present) is given as > 80%. Also, the “ability of fascin to bundle actin polymers” value at fascin (preincubation of fascin) is listed as “decreased the ability of fascin to bundle actin polymers”. The “sensitivity of rescued migration” value on villin [2] is “insensitive”.
